According to US10450549B2, “Aryloxyphenoxypropionate tolerance in turfrgass species and use of AAD1 as a selectable marker” (Dow AgroSciences, LLC, priority 2004, dated 2019):

Tests used:
[1] = test system: Non-transformed Hi-II callused suspension tissue; test: Dose response of non-transformed maize callus tissue; format: cell-based; details: haloxyfop 400 nM
pDAS1421 T0 corn = test: Whole plant quizalofop screening of T0 corn lineages containing AAD1 (v3) and AHAS (pDAS1421); format: in vivo; details: number of lineages
Experimental: Seventy-two Agrobacterium-transformed events were selected on various levels of R-haloxyfop acid and R-cyhalofop acid in vitro. Twenty-two callus samples were analyzed by Southern blot analysis for stable integration of AAD1 (v3) into the genome as described previously.
A minimum six regenerated clonal lineages per event were moved to soil in the greenhouse and screened using a track sprayer as previously described to apply 35 g ae/ha quizalofop when 2-4 new, normal leaves had emerged (see section 8.3.3). Presence of AAD1 protein on a Western blot correlated perfectly with herbicide resistance in the T0 generation regardless of which AOPP herbicide was used for selection. There is no negative impact of the second HTC gene (AHAS) on the function of the AAD1 (v3).

In the case of `CC(Oc1ccc(Oc2ncc(C(F)(F)F)cc2Cl)cc1)C(=O)O` (stereo not drawn) [haloxyfop], the “non-transgenic corn callus tissue growth” value [1] is reported as “inhibited”.

With `C[C@@H](Oc1ccc(Oc2cnc3cc(Cl)ccc3n2)cc1)C(=O)O` [quizalofop] the “Assessment of T0 lineages resistant to 35 g ae/ha quizalofop: Resistant” value (from here on “Assessment … to 35 g ae/ha quizalofop: Resistant”) (pDAS1421 T0 corn; event 1421[3]-036) was 8, the “Assessment of T0 lineages resistant to 35 g ae/ha quizalofop: Sensitive” value (shortened to “Assessment of T0 lineages resistant … Sensitive”) (pDAS1421 T0 corn; event 1421[3]-036) was 0 and the “Assessment … to 35 g ae/ha quizalofop: Resistant” value (pDAS1421 T0 corn; event 1421[4]-031) was 9. For the same compound, the “Assessment of T0 lineages resistant … Sensitive” value (pDAS1421 T0 corn; event 1421[4]-031) was 0, the “Assessment … to 35 g ae/ha quizalofop: Resistant” value (pDAS1421 T0 corn; event 1421[4]-032) was 8 and the “Assessment of T0 lineages resistant … Sensitive” value (pDAS1421 T0 corn; event 1421[4]-032) was 0. For the same compound, the “Assessment … to 35 g ae/ha quizalofop: Resistant” value (pDAS1421 T0 corn; event 1421[4]-033) was 12, the “Assessment of T0 lineages resistant … Sensitive” value (pDAS1421 T0 corn; event 1421[4]-033) was 0 and the “Assessment … to 35 g ae/ha quizalofop: Resistant” value (pDAS1421 T0 corn; event 1421[4]-034) was 8. For the same compound, the “Assessment of T0 lineages resistant … Sensitive” value (pDAS1421 T0 corn; event 1421[4]-034) was 0, the “Assessment … to 35 g ae/ha quizalofop: Resistant” value (pDAS1421 T0 corn; event 1421[4]-035) was 6 and the “Assessment of T0 lineages resistant … Sensitive” value (pDAS1421 T0 corn; event 1421[4]-035) was 0. For the same compound, the “Assessment … to 35 g ae/ha quizalofop: Resistant” value (pDAS1421 T0 corn; event 1421[21]-016) was 8, the “Assessment of T0 lineages resistant … Sensitive” value (pDAS1421 T0 corn; event 1421[21]-016) was 0 and the “Assessment … to 35 g ae/ha quizalofop: Resistant” value (pDAS1421 T0 corn; event 1421[22]-020) was 8. For the same compound, the “Assessment of T0 lineages resistant … Sensitive” value (pDAS1421 T0 corn; event 1421[22]-020) was 0, the “Assessment … to 35 g ae/ha quizalofop: Resistant” value (pDAS1421 T0 corn; event 1421[22]-022) was 8 and the “Assessment of T0 lineages resistant … Sensitive” value (pDAS1421 T0 corn; event 1421[22]-022) was 0. The “Assessment … to 35 g ae/ha quizalofop: Resistant” value (pDAS1421 T0 corn; event 1421[22]-023) was 8 and the “Assessment of T0 lineages resistant … Sensitive” value (pDAS1421 T0 corn; event 1421[22]-023) was 0.
